{"source": "patent US20200223826A1", "about": "“Glucose-6-Phosphate Dehydrogenase (G6PD)-Modulating Agents And Methods Of Treating G6PD Deficiency” (The Board of Trustees of the Leland Stanford Junior …, priority 2017, published 2020)", "key": {"Canton G6PD": {"target": "T1, Canton G6PD (Homo sapiens, UniProt P11413, R459L)", "T1 construct": "His (pET-28a) (N, cleaved yes); made in house; host or cells: E. coli C43 (DE3)", "T1 sequence (P11413 whole entry R459L)": "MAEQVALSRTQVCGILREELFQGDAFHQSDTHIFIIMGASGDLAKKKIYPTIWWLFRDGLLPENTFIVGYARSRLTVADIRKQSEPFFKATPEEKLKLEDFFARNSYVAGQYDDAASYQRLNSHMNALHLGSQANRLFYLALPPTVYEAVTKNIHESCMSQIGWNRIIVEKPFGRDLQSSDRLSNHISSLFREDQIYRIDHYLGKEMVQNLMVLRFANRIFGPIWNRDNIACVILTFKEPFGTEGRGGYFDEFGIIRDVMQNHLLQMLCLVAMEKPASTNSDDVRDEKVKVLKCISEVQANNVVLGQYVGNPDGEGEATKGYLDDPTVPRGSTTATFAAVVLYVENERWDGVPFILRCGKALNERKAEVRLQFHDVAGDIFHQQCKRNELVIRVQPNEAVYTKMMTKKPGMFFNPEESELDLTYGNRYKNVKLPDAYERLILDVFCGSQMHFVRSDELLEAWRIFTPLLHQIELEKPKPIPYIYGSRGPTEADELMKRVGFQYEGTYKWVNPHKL", "experiment": "Canton G6PD enzyme activity, diaphorase-coupled assay", "type": "biochemical", "experimental": "Enzyme activity was measured by monitoring NADPH production, which was coupled with diaphorase converting resazurin to fluorescent resorufin (excitation at 565 nm and emission at 590 nm); fluorescent signal was thus proportional to G6PD activity. Assays were performed at 25° C. and run for 5 minutes in buffer containing 50 mM Tris (pH 7.4), 0.5 mM EDTA, 3.3 mM MgCl2, 1 U/ml diaphorase, 0.1 mM resazurin. 10 ng of recombinant enzymes or 10 μg of cell lysates was used for the assay with 10 μM NADP^+ (Sigma) as cofactor and 100 μM G6P (Sigma) as substrate. Steady-state kinetic parameters were obtained by varying concentrations of NADP^+ (0-10 μM) with a constant concentration of G6P (100 μM) and similarly for G6P (0-100 μM) with a constant concentration of NADP^+ (10 μM) with 10 ng of recombinant enzymes. Data analysis was performed using GraphPad Prism software v.6 (GraphPad Software, La Jolla, Calif. USA). Kinetic parameters were obtained by fitting the data to the Michaelis-Menten equation.\nThe diaphorase-coupled enzyme assay as described above was used to screen a library of compounds for small molecule activators. The compounds were added to Canton G6PD enzyme reaction mixture at a final concentration of 16.67 μM using Caliper Life Sciences Staccato system with a Twister II robot and a Sciclone ALH3000 (Caliper Life Sciences, Alameda, Calif. USA) integrated with a V&P Scientific pin tool, which was followed by incubation for 3 hours. Addition of G6P then initiated the reaction, which was run for 2.5 minutes. The fluorescent signals were recorded 4 times during the run using Molecular Devices AnalystGT (Molecular Devices, Sunnyvale, Calif. USA). Any compounds showing 30% activation of the enzyme were rescreened in a dose-dependent manner (0-30 μM, duplicate) to identify potential hits.\nBased on preliminary results with compound AG1, a variety of compounds of interest were prepared and assessed in G6PD enzyme activation assays, according to the methods described herein."}, "A- (V68M, N126D) G6PD": {"target": "T2, A- (V68M, N126D) G6PD (Homo sapiens, UniProt P11413, N126D/V68M)", "T2 construct": "His (pET-28a) (N, cleaved yes); made in house; host or cells: E. coli C43 (DE3)", "T2 sequence (P11413 whole entry V68M/N126D)": "as the sequence (P11413 whole entry R459L) above, with V68M, N126D, L459R counted along it", "experiment": "Native gel electrophoresis, dimerization of variant", "experimental": "(§1) 200 ng of recombinant enzymes were incubated with the compound (varying in assays) for 10 minutes at room temperature. To prevent streaking and artifacts in native PAGE gel, the samples in a native state (no boiling of sample and no reducing agent in sample buffer) were electrophoresed by […]. Cross-linking assay was initiated by incubating 500 ng of recombinant enzymes in PBS with 0.1% of glutaraldehyde and different concentrations of NADP^+ (0, 10, 100, 1000 μM) or MgCl2 (0, 1, 10, 100 mM). The mixture was incubated for 10 minutes at room temperature, which was followed by the addition of 100 mM Tris (pH 8.0) at a final concentration to terminate the reaction. The samples were electrophoresed as described above."}, "Kaiping (R463H) G6PD": {"target": "T3, Kaiping (R463H) G6PD (Homo sapiens, UniProt P11413, R463H)", "T3 construct": "His (pET-28a) (N, cleaved yes); made in house; host or cells: E. coli C43 (DE3)", "T3 sequence (P11413 whole entry R463H)": "as the sequence (P11413 whole entry R459L) above, with L459R, R463H counted along it", "experiment": "Native gel electrophoresis, dimerization of variant", "experimental": "as §1"}, "[1]": {"target": "T4, Mediterranean (S188F) G6PD (Homo sapiens, UniProt P11413, S188F)", "T4 construct": "His (pET-28a) (N, cleaved yes); made in house; host or cells: E. coli C43 (DE3)", "T4 sequence (P11413 whole entry S188F)": "as the sequence (P11413 whole entry R459L) above, with S188F, L459R counted along it", "experiment": "Native gel electrophoresis, dimerization of variant", "experimental": "as §1"}, "[2]": {"test_system": "G6PD in zebrafish embryo lysates", "experiment": "G6PD activity in lysates of pooled zebrafish embryos", "type": "in vivo", "conditions": "lysates of pooled AG1-treated embryos", "experimental": "Embryos were dechorinated with pronase at 24 hours post fertilization (hpf) and treated with 50 μg/ml of chloroquine and/or AG1 by directly adding the compounds to the well. For ROS measurements, embryos were incubated with compounds for 2 hours, and then the ROS detecting reagent (CM-H2DCFDA) was added at a final concentration of 500 ng/ml to the well for a total treatment time of 5 hours. One embryo was placed to each well of a black, opaque 96-well plate. The florescence was analyzed with excitation/emission at 485/525 nm. After ROS assays, embryos at about 32 hpf were pooled and lysed in buffer containing 50 mM Tris (pH 7.4), 150 mM NaCl, 1 mM EDTA, 0.1% NP-40, and protease inhibitor cocktail, which was followed by three cycles of freeze and thawing in liquid nitrogen. The lysate was centrifuged at 14,000 rpm at 4° C. for 15 minutes. Total protein concentration in the supernatants (total lysate) was determined by Bradford method. 50 μg of total lysate was loaded onto 10% SDS-PAGE gels and the protein level was examined by Western blot using anti-G6PD antibody (Abcam (G6PD: AB87230)). 10 μg of total lysate was used for enzymatic assay. 50 μg of the lysate was used to measure NADPH levels using a NADPH quantification kit (Biovision), according to the manufacturer's instructions."}, "human erythrocytes": {"test_system": "human erythrocytes", "experiment": "Hemolysis of human erythrocytes under oxidative stressors", "type": "cell-based", "experimental": "De-identified blood samples were obtained from the Stanford Blood Center. Erythrocytes were collected by filtering the samples through a cellulose slurry to remove platelets and leukocytes and then washed with saline. G6PD activity was measured (Beutler E. Red cell metabolism: A manual of biochemical methods (3rd edition). Grune & Stratton (1984)). […] A 5% erythrocyte suspension was pre-incubated with 1-5 μM AG1 at 4° C. overnight, which was followed by treatment with (or without) either 1 mM chloroquine (CQ) or 1 mM diamide for 3-4 hours at 37° C. (for hemolysis assay with chloroquine, the mixture was incubated under light). Then centrifugation at 1,000 rpm for 5 minutes was followed. Hemoglobin release in the supernatant was monitored by measuring absorbance at 540 nm. […] After wash, the samples were lysed with 0.1% Triton X-100 (final concentration), and the florescence was analyzed with excitation/emission at 485/525 nm. GSH measurement was determined using a Cayman glutathione assay kit (Cayman Chemicals, 703002). […] The absorbance was read at 412 nm. For storage assay, a 5% erythrocyte suspension was stored at 4° C. with and without 1 μM AG1, and hemolysis and G6PD activity were monitored every week for 28 days to examine whether AG1 improves preservation of erythrocytes over time. Protein leakage was also examined by measuring the absorbance of the supernatant of samples at 280 nm. […]"}}, "note": "pEC50: −log10 of the molar value.", "data": [{"smiles": "SCCNCCc1c[nH]c2ccccc12", "note": "[AG1, 2-[2-(1H-indol-3-yl)ethylamino]ethanethiol]", "values": [{"measurement": "increase of the activity of Canton G6PD enzyme", "setting": "Canton G6PD; 100 μM of AG1", "result": 70, "unit": "%"}, {"measurement": "kcat (turnover number)", "setting": "Canton G6PD; Canton G6PD in presence of AG1", "result": "296 ± 1", "unit": "S^−1"}, {"measurement": "pEC50", "setting": "Canton G6PD; read-out: EC50 of activation of Canton G6PD", "result": "~5.52"}, {"measurement": "dimerization of variant", "setting": "A- (V68M, N126D) G6PD", "result": "promoted their dimerization"}, {"measurement": "dimerization of variant", "setting": "Kaiping (R463H) G6PD", "result": "promoted their dimerization"}, {"measurement": "dimerization of variant", "setting": "[1]", "result": "promoted their dimerization"}, {"measurement": "G6PD activity", "setting": "[2]", "result": "slight increase"}, {"measurement": "chloroquine-induced hemolysis", "setting": "human erythrocytes; AG1 1 μM", "result": "rescued"}, {"measurement": "extent of hemolysis", "setting": "human erythrocytes; AG1 5 μM, 5% erythrocyte suspension, 1 mM chloroquine or diamide", "result": "reduces the extent of hemolysis"}]}]}
